# Results as given in patent US12083196B2, “Personal cleansing compositions with surfactants for increased foam performance” (ECOLAB USA INC., priority 2020, dated 2024).
# Assay: SITA Foam Analyzer foam decay
# Format: physicochemical
# Conditions: single surfactant, 1%, FIG. 2
# Text: The reagents used below include: • Alpha-Step® PC-48 is a C10-16 sodium methyl 2-sulfolaurate and disodium 2-sulfolaurate available from Stepan; • Stepan-Mild® L3 is a predominantly C12 reaction product of lauryl alcohol and lactic acid available from Stepan; • SLES is sodium laureth sulfate; • Cola® Teric is an amphoteric sultaine available from Colonial Chemical, Inc.; • Glucopon® […] is an alkyl polyglycoside available from BASF Corporation; • Suga® Nate is a sodium laurylglucosides hydrooxypropylsulfonate available from Colonial Chemicals, Inc; • Lathanol® LAL is a sodium lauryl sulfoacetate available from Stepan. […] To rename sample measurement files, right click on the open sample window, and click “save” to rename your sample file • 8) If an error occurs at any point with your sample, the measurement reading can be stopped by clicking the red square “Stop icon” or by pressing the large red button on the machine • 9) Organize the graph generated with the icons in the fourth section of the tool bar: create new plot, add/remove data from plot, change axis properties, and view properties. […] Right click to rename the plot, insert or remove the plot and display the foam buildup, foam decay, or both The foam decay time was also measured. […]
substance,measurement,value
sodium laureth sulfate [SLES],loss of foaming over 10 minutes,about 20 mL
